Experimental data taken from ChEMBL document CHEMBL5512652, “Mono-quinoxaline-induced DNA structural alteration leads to ZBP1/RIP3/MLKL-driven necroptosis in cancer cells” (Eur J Med Chem, 2024).
The source made the active and inactive calls. No cut-off for these calls is given here.

Tests used:
AT rich DNA = test: Binding affinity to DNA (AT)6 (unknown origin); assay type: nucleic-acid assay
[1] = Effect on DNA/Nucleosome complex (unknown origin) assessed as induction histone eviction by measuring reduction in band intensity at 150 uM incubated for 4 hrs by EtBr staining based assay; design: scale not given: the % may be the effect or the level left
HeLa [2] = test: Induction of apoptosis in human HeLa cells assessed as increase in cleaved caspase-3 expression at 2 to 4 uM incubated for 24 hrs by immunoblotting analysis; assay type: functional, cell-based; conditions: dose 2-4 µM
HCT-116 = test: Induction of apoptosis in human HCT-116 cells assessed as increase in cleaved caspase-3 expression at 1 to 2 uM incubated for 24 hrs by immunoblotting analysis; assay type: functional, cell-based; conditions: dose 1-2 µM
HT-29 [3] = test: Induction of apoptosis in human HT-29 cells assessed as increase in cleaved caspase-3 expression at 3 to 6 uM incubated for 24 hrs by immunoblotting analysis; assay type: functional, cell-based; conditions: dose 3-6 µM
HeLa [4] = test: Induction of apoptosis in human HeLa cells assessed as early apoptotic cells at 2 uM incubated for 24 hrs by FITC/Annexin V based FACS analysis (reference value: 2.7%); assay type: functional
HeLa [5] = test: Induction of apoptosis in human HeLa cells assessed as viable cells at 6 uM incubated for 24 hrs by FITC/Annexin V based FACS analysis (reference value: 91%); assay type: functional; conditions: read-out: Activity
HT-29 [6] = test: Induction of apoptosis in human HT-29 cells assessed as viable cells at 8 uM incubated for 24 hrs by FITC/Annexin V based FACS analysis (reference value: 90.8%); assay type: functional; conditions: read-out: Activity
HeLa [7] = test: Induction of mitochondrial dysfunction in human HeLa cells assessed as clumping of mitochondria incubated for 24 hrs by JC-1 staining based confocal microscopy imaging method; assay type: functional, cell-based
HeLa [8] = test: Induction of cell death in human HeLa cells assessed as increase in ZBP1 expression at 4 uM incubated for 24 hrs by immunofluorescence analysis; assay type: functional, cell-based
DNA = test: Induction of pBR322 plasmid DNA (unknown origin) conformational change at 2.5:1 compound:DNA ratio incubated for 4 hrs by EtBr staining based agarose gel mobility shift assay; assay type: nucleic-acid assay

Activity (AT rich DNA): Active
Activity [1]: 100%
Activity (DNA): 100%
Structure (SMILES): CN(C)CCCNc1nc2cc([N+](=O)[O-])ccc2nc1NCc1ccc(-c2ccccc2)cc1
Activity (HeLa [2]): Active
Activity (HCT-116): Active
Activity (HT-29 [3]): Active
Activity (HeLa [4]): 10.2%
viability at 6 µM (HeLa [5]): 15.2%
viability at 8 µM (HT-29 [6]): 55.9%
Activity (HeLa [7]): Active
Activity (HeLa [8]): Active
